In the oligonucleotide strings, read from the 5' end, every base follows the letter of its sugar. An asterisk marks phosphorothioate; unmarked linkages are phosphodiester. Other units and linkages are bracketed, terminal groups are in braces. A string of capitals states the bases alone. d = 2'-deoxy (DNA)
Tested on: human meltrin α RNA
Test: Suppression of human meltrin α expression by antisense compound in RD cell (real time PCR)
Assay type: cell-based
Settings: 50 nM; RD cell; corrected by GAPDH
Method in brief: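 RD cells transfected with heat-denatured antisense oligodeoxynucleotide plus Lipofectin in Opti-MEM for 4 h at 37° C, then cultured 18 h. Meltrin α RNA quantified by TaqMan RT-PCR against plasmid standard curve, GAPDH-corrected; suppression vs untreated cells, rated +/++/+++ for ≥30/50/70%.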

Question: “H148 + 5: ccaggcggagcccagtctcc (dC*dC*dA*dG*dG*dC*dG*dG*dA*dG*dC*dC*dC*dA*dG*dT*dC*dT*dC*dC; antisense)” was tested. Which “suppression rate of expression, 50 nM” value did it give?
Answer: + (“+” when the suppression rate was at least 30%)

Question: “H006: tttccccccgtgtgtgtgcg (TTTCCCCCCGTGTGTGTGCG; antisense; DNA, all phosphorothioate, methylation of C not given here)” was tested. Which “suppression rate of expression, 50 nM” value did it give?
Answer: ++ (“++” when the suppression rate was at least 50%)

Question: “H015: cggccttcagtgcagcagct (CGGCCTTCAGTGCAGCAGCT; antisense; DNA, all phosphorothioate, methylation of C not given here)” was tested. Which “suppression rate of expression, 50 nM” value did it give?
Answer: ++ (“++” when the suppression rate was at least 50%)

Question: For “H139 + 10: tgcacgtggggcccggtgga (TGCACGTGGGGCCCGGTGGA; antisense; DNA, all phosphorothioate, methylation of C not given here)”, which “suppression rate of expression, 50 nM” value is on record?
Answer: + (“+” when the suppression rate was at least 30%)

Question: For “H139 + 12: ggtgcacgtggggcccggtg (GGTGCACGTGGGGCCCGGTG; antisense; DNA, all phosphorothioate, methylation of C not given here)”, which “suppression rate of expression, 50 nM” value is on record?
Answer: + (“+” when the suppression rate was at least 30%)

Question: With “H131 + 5: ttttccaaggtggccgaggt (TTTTCCAAGGTGGCCGAGGT; antisense; DNA, all phosphorothioate, methylation of C not given here)” as the substance, how does the “suppression rate of expression, 50 nM” value read?
Answer: + (“+” when the suppression rate was at least 30%)

Question: How did the “suppression rate of expression, 50 nM” value turn out when “H134: atctcctgggattgtccttc (ATCTCCTGGGATTGTCCTTC; antisense; DNA, all phosphorothioate, methylation of C not given here)” was run?
Answer: + (“+” when the suppression rate was at least 30%)

Question: Which “suppression rate of expression, 50 nM” value does the source give for “H010: cctcggcgagtcagctccgg (CCTCGGCGAGTCAGCTCCGG; antisense; DNA, all phosphorothioate, methylation of C not given here)” here?
Answer: ++ (“++” when the suppression rate was at least 50%)

Question: How did the “suppression rate of expression, 50 nM” value turn out when “H144 + 10: gatctgcaggcagaggcttc (GATCTGCAGGCAGAGGCTTC; antisense; DNA, all phosphorothioate, methylation of C not given here)” was run?
Answer: +++ (“+++” when the suppression rate was at least 70%)

Question: For “H133 + 3: ttcggtgggtaggaatctgg (TTCGGTGGGTAGGAATCTGG; antisense; DNA, all phosphorothioate, methylation of C not given here)”, which “suppression rate of expression, 50 nM” value is on record?
Answer: + (“+” when the suppression rate was at least 30%)

Question: With “H144 + 19: tggccagaggatctgcaggc (TGGCCAGAGGATCTGCAGGC; antisense; DNA, all phosphorothioate, methylation of C not given here)” as the substance, how does the “suppression rate of expression, 50 nM” value read?
Answer: +++ (“+++” when the suppression rate was at least 70%)

Same assay, conditions: 200 nM; RD cell; corrected by GAPDH

Question: Which “suppression rate of expression, 200 nM” value does the source give for “H006: tttccccccgtgtgtgtgcg (TTTCCCCCCGTGTGTGTGCG; antisense; DNA, all phosphorothioate, methylation of C not given here)” here?
Answer: ++ (“++” when the suppression rate was at least 50%)

Question: “H055: tccacgcctaccaacacgat (dT*dC*dC*dA*dC*dG*dC*dC*dT*dA*dC*dC*dA*dA*dC*dA*dC*dG*dA*dT; antisense)” was tested. Which “suppression rate of expression, 200 nM” value did it give?
Answer: ++ (“++” when the suppression rate was at least 50%)

Question: For “H019: ggcgcgagcagagcaccggc (GGCGCGAGCAGAGCACCGGC; antisense; DNA, all phosphorothioate, methylation of C not given here)”, which “suppression rate of expression, 200 nM” value is on record?
Answer: ++ (“++” when the suppression rate was at least 50%)

Question: How did the “suppression rate of expression, 200 nM” value turn out when “H015: cggccttcagtgcagcagct (CGGCCTTCAGTGCAGCAGCT; antisense; DNA, all phosphorothioate, methylation of C not given here)” was run?
Answer: + (“+” when the suppression rate was at least 30%)

Question: For “H020: tcacccctcgggcctcgcag (TCACCCCTCGGGCCTCGCAG; antisense; DNA, all phosphorothioate, methylation of C not given here)”, which “suppression rate of expression, 200 nM” value is on record?
Answer: ++ (“++” when the suppression rate was at least 50%)

Question: How did the “suppression rate of expression, 200 nM” value turn out when “H102: agcatctctcatctcgcatt (dA*dG*dC*dA*dT*dC*dT*dC*dT*dC*dA*dT*dC*dT*dC*dG*dC*dA*dT*dT; antisense)” was run?
Answer: + (“+” when the suppression rate was at least 30%)

Question: Which “suppression rate of expression, 200 nM” value does the source give for “H089: ggaggtcacaggagttgctg (dG*dG*dA*dG*dG*dT*dC*dA*dC*dA*dG*dG*dA*dG*dT*dT*dG*dC*dT*dG; antisense)” here?
Answer: + (“+” when the suppression rate was at least 30%)

Question: How did the “suppression rate of expression, 200 nM” value turn out when “H182: ccaaagcttcctggccagaa (dC*dC*dA*dA*dA*dG*dC*dT*dT*dC*dC*dT*dG*dG*dC*dC*dA*dG*dA*dA; antisense)” was run?
Answer: ++ (“++” when the suppression rate was at least 50%)

Question: With “H104: gccggctggcacctccttga (dG*dC*dC*dG*dG*dC*dT*dG*dG*dC*dA*dC*dC*dT*dC*dC*dT*dT*dG*dA; antisense)” as the substance, how does the “suppression rate of expression, 200 nM” value read?
Answer: +++ (“+++” when the suppression rate was at least 70%)

Question: For “H134: atctcctgggattgtccttc (ATCTCCTGGGATTGTCCTTC; antisense; DNA, all phosphorothioate, methylation of C not given here)”, which “suppression rate of expression, 200 nM” value is on record?
Answer: ++ (“++” when the suppression rate was at least 50%)

Question: With “H065: ccccagactggtctgccgtg (dC*dC*dC*dC*dA*dG*dA*dC*dT*dG*dG*dT*dC*dT*dG*dC*dC*dG*dT*dG; antisense)” as the substance, how does the “suppression rate of expression, 200 nM” value read?
Answer: ++ (“++” when the suppression rate was at least 50%)

Question: How did the “suppression rate of expression, 200 nM” value turn out when “H115: tggcactgcattgcacactc (dT*dG*dG*dC*dA*dC*dT*dG*dC*dA*dT*dT*dG*dC*dA*dC*dA*dC*dT*dC; antisense)” was run?
Answer: ++ (“++” when the suppression rate was at least 50%)

Question: “H010: cctcggcgagtcagctccgg (CCTCGGCGAGTCAGCTCCGG; antisense; DNA, all phosphorothioate, methylation of C not given here)” was tested. Which “suppression rate of expression, 200 nM” value did it give?
Answer: ++ (“++” when the suppression rate was at least 50%)

Question: Which “suppression rate of expression, 200 nM” value does the source give for “H023: ggtccccactccgaacagag (GGTCCCCACTCCGAACAGAG; antisense; DNA, all phosphorothioate, methylation of C not given here)” here?
Answer: + (“+” when the suppression rate was at least 30%)

Question: How did the “suppression rate of expression, 200 nM” value turn out when “H040: ttgtatctgttggttgcact (TTGTATCTGTTGGTTGCACT; antisense; DNA, all phosphorothioate, methylation of C not given here)” was run?
Answer: + (“+” when the suppression rate was at least 30%)

Question: How did the “suppression rate of expression, 200 nM” value turn out when “H187: ggctggtcagctcagggtca (dG*dG*dC*dT*dG*dG*dT*dC*dA*dG*dC*dT*dC*dA*dG*dG*dG*dT*dC*dA; antisense)” was run?
Answer: +++ (“+++” when the suppression rate was at least 70%)

Question: Which “suppression rate of expression, 200 nM” value does the source give for “H002: actgtccgagttggcccggg (ACTGTCCGAGTTGGCCCGGG; antisense; DNA, all phosphorothioate, methylation of C not given here)” here?
Answer: ++ (“++” when the suppression rate was at least 50%)

Question: “H021: tcttccttggttccataagc (TCTTCCTTGGTTCCATAAGC; antisense; DNA, all phosphorothioate, methylation of C not given here)” was tested. Which “suppression rate of expression, 200 nM” value did it give?
Answer: + (“+” when the suppression rate was at least 30%)

Question: Which “suppression rate of expression, 200 nM” value does the source give for “H100: actttgccacagttgccata (dA*dC*dT*dT*dT*dG*dC*dC*dA*dC*dA*dG*dT*dT*dG*dC*dC*dA*dT*dA; antisense)” here?
Answer: + (“+” when the suppression rate was at least 30%)
